“And” between values parts separate entries of the source, which are not always exact repeats. Equal entries are not always repeated.
Key:
[1] = activity coefficient (dimensionless); of the first substance listed, at infinite dilution; xn = mol fraction of the nth substance listed; settings: 101.3 kPa, Liquid, x1 = 0
[2] = 101.33 kPa, Liquid, Vibrating tube method

C1COCCO1 [1,4-dioxane] + CC(=O)[O-].CCn1cc[n+](C)c1
activity coefficient, [1]
Settings | 333 K | 353 K | 373 K | 393 K | 403 K | 413 K
Chromatography | – | – | 2.56 and 2.43 | 2.63 and 2.32 | 2.75 and 2.44 | 2.77 and 2.46
open tubular wall-coated column chromatography | 2.29 | 2.28 | 2.39 | 2.52 | 2.67 | 2.58

CC(C)(C)O [2-methylpropan-2-ol] + CC(=O)[O-].CCn1cc[n+](C)c1
[1], Open tubular Wall-Coated Column Chromatography
Settings | activity coefficient
313 K | 0.16
333 K | 0.18
353 K | 0.22
373 K | 0.27
393 K | 0.3
413 K | 0.37

Cc1ccccc1 [toluene] + CC(=O)[O-].CCn1cc[n+](C)c1
activity coefficient, [1]
Settings | 313 K | 333 K | 353 K | 363 K | 373 K | 383 K | 393 K | 403 K | 413 K
Chromatography | – | – | – | 6.07 and 6.21 | 6.08 and 5.92 | 6.12 and 6.03 | 6.23 and 5.87 | 6.28 and 6.04 | 7.11 and 6.37
open tubular wall-coated column chromatography | 5.01 | 5.41 | 5.76 | 5.81 | 5.88 | 6.03 | 6.13 | 6.47 | 6.55

COCCOC [1,2-dimethoxyethane] + CC(=O)[O-].CCn1cc[n+](C)c1
[1], Open tubular Wall-Coated Column Chromatography
Settings | activity coefficient
313 K | 3.56
333 K | 3.88
353 K | 4.11
373 K | 4.51
393 K | 4.81

CCCCCC [hexane] + CC(=O)[O-].CCn1cc[n+](C)c1
activity coefficient, [1]
Settings | 313 K | 333 K | 353 K | 373 K | 393 K | 413 K
Chromatography | 86.4 and 90.5 | 82.4 and 80.7 | 65.9 and 71.3 | 66.1 and 72.7 | 58.8 and 55.3 | 91.2 and 66.5
open tubular wall-coated column chromatography | 86.5 | 80 | 70.6 | – | – | –

CC#N [acetonitrile] + CC(=O)[O-].CCn1cc[n+](C)c1
activity coefficient, [1]
Settings | 333 K | 353 K | 373 K | 383 K | 393 K | 403 K
Chromatography | – | – | 0.82 | 0.85 and 0.88 | 0.87 | –
open tubular wall-coated column chromatography | 0.76 | 0.77 | 0.86 | 0.91 | 0.89 | 1.21

C1CCCCC1 [cyclohexane] + CC(=O)[O-].CCn1cc[n+](C)c1
activity coefficient, [1]
Settings | 313 K | 333 K | 353 K | 373 K | 383 K | 393 K | 413 K
Chromatography | 36.2 and 35.5 | 30.9 and 31.6 | 27.3 and 29.1 | 27.4 and 29.3 | 26.9 and 25.6 | 26.5 and 28.9 | 24.8 and 24.3
open tubular wall-coated column chromatography | 31.8 | 31.5 | 32.8 | – | – | 30.3 | –

c1ccccc1 [benzene] + CC(=O)[O-].CCn1cc[n+](C)c1
activity coefficient, [1]
Settings | 313 K | 333 K | 353 K | 373 K | 383 K | 393 K | 403 K | 413 K
Chromatography | – | – | 3.41 and 3.39 | 3.45 and 3.31 | 3.49 and 3.62 | 3.52 and 3.45 | 4.15 and 3.67 | 4.1 and 4.11
open tubular wall-coated column chromatography | 2.8 | 3.06 | 3.43 | 3.44 | 3.49 | 3.68 | 3.91 | 4.28

CCC(C)(C)O [2-methylbutan-2-ol] + CC(=O)[O-].CCn1cc[n+](C)c1
[1], Open tubular Wall-Coated Column Chromatography
Settings | activity coefficient
353 K | 0.29
373 K | 0.35
393 K | 0.42
413 K | 0.49

CCCCCCC [heptane] + CC(=O)[O-].CCn1cc[n+](C)c1
[1], Open tubular Wall-Coated Column Chromatography
Settings | activity coefficient
313 K | 121
333 K | 146
353 K | 157
373 K | 173

CC(C)O [propan-2-ol] + CC(=O)[O-].CCn1cc[n+](C)c1
[1], Open tubular Wall-Coated Column Chromatography
Settings | activity coefficient
313 K | 0.08
333 K | 0.11
353 K | 0.13
373 K | 0.15
393 K | 0.16
413 K | 0.19

CCOC(C)=O [ethyl acetate] + CC(=O)[O-].CCn1cc[n+](C)c1
activity coefficient, [1]
Settings | 313 K | 333 K | 353 K | 373 K | 393 K | 403 K | 413 K
Chromatography | – | 5.41 and 4.67 | 5.48 and 4.72 | 5.24 and 4.67 | 5.29 and 4.76 | 5.47 and 5.05 | 5.44 and 5.11
open tubular wall-coated column chromatography | 4.41 | 4.77 | 5.24 | 5.62 | 5.35 | 5.32 | –

CCCO [propan-1-ol] + CC(=O)[O-].CCn1cc[n+](C)c1
[1], Open tubular Wall-Coated Column Chromatography
Settings | activity coefficient
313 K | 0.06
333 K | 0.07
353 K | 0.09
373 K | 0.1
393 K | 0.11
413 K | 0.13

C=CCCCC [hex-1-ene] + CC(=O)[O-].CCn1cc[n+](C)c1
activity coefficient, [1]
Settings | 313 K | 333 K | 353 K | 373 K | 393 K | 413 K
Chromatography | 37.8 and 39 | 34.7 and 35.5 | 31.3 and 34.8 | 31 and 33.4 | 30.6 and 30.1 | 25 and 27
open tubular wall-coated column chromatography | 36 | 35.1 | – | – | – | –

CC(=O)[O-].CCn1cc[n+](C)c1 [1-ethyl-3-methylimidazolium acetate]
[2]
Settings | mass density [kg/m3]
293.15 K | 1100.87
298.15 K | 1097.83
303.15 K | 1094.77
308.15 K | 1091.71
313.15 K | 1088.65
318.15 K | 1085.61
323.15 K | 1082.57
328.15 K | 1079.55
333.15 K | 1076.54
338.15 K | 1073.54
343.15 K | 1070.55
348.15 K | 1067.58
353.15 K | 1064.61
358.15 K | 1061.65

C1CCOC1 [tetrahydrofuran] + CC(=O)[O-].CCn1cc[n+](C)c1
activity coefficient, [1]
Settings | 313 K | 333 K | 353 K | 373 K | 383 K | 393 K | 403 K | 413 K
Chromatography | – | 3.91 and 3.36 | 3.92 and 3.37 | 3.68 and 3.5 | – | 3.88 and 3.35 | 4.02 and 3.55 | 4.13 and 3.9
open tubular wall-coated column chromatography | 3.22 | 3.49 | 3.63 | 3.67 | 3.94 | 4.02 | 4 | –

C[N+](=O)[O-] [nitromethane] + CC(=O)[O-].CCn1cc[n+](C)c1
[1], Open tubular Wall-Coated Column Chromatography
Settings | activity coefficient
353 K | 0.44
373 K | 0.46
393 K | 0.46

From the NIST ThermoML archive (doi:10.1016/j.jct.2011.11.005)
